Measurements taken from US20150352108A1, “AMINO-PYRIMIDINE COMPOUNDS AS INHIBITORS OF TBK1 AND/OR IKK EPSILON” (Alzheimer's Institute of America, priority 2009, published 2015).
Like-named read-outs stand apart in the source and are kept apart here.

Legend:
TBK1 = target: T1, TBK1 (Homo sapiens, UniProt Q9UHD2); assay: In-vitro TBK1 kinase assay ([γ33]ATP filter-plate); assay type: biochemical
T1 construct: His-tag; made in house; host or cells: Sf9 insect cells
T1 sequence (Q9UHD2 1-729): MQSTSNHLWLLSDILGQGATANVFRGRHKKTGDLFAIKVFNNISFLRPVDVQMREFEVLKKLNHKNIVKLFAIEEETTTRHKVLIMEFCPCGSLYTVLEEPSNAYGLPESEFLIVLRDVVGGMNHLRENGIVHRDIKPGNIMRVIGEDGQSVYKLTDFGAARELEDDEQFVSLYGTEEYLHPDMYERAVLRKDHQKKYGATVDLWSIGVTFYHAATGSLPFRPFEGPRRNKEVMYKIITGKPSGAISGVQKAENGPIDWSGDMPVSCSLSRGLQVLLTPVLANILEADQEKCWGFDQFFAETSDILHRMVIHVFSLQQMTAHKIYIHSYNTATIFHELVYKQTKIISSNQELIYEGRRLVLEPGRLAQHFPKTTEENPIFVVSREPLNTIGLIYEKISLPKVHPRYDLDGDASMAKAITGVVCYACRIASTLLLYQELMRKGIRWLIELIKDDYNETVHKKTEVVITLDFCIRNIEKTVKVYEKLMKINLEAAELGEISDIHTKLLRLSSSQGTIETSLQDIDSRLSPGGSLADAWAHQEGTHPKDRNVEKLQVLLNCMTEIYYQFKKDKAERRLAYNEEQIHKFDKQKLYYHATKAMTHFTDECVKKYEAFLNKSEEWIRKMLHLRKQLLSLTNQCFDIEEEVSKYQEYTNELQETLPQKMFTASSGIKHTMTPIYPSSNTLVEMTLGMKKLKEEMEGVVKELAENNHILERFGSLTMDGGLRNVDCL
Outline: (§1)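 His-tagged Sf9-expressed kinases at 0.1 or 0.02 μg/ml (TBK1) and 0.1 or 0.015 μg/ml (IKKε) for normal and sensitized formats, with myelin basic protein or casein substrate. ATP was at 2×Km (60 μM TBK1, 32 μM IKKε) plus 0.3 μCi [γ33]ATP. Reactions ran 30-45 min, were captured on P-81 filters, and counts were normalized to DMSO.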

IKKε = target: T2, IKKε (Homo sapiens, UniProt Q14164); assay: In-vitro IKKε kinase assay ([γ33]ATP filter-plate); assay type: biochemical
T2 construct: His-tag; made in house; host or cells: Sf9 insect cells
T2 sequence (Q14164 1-716): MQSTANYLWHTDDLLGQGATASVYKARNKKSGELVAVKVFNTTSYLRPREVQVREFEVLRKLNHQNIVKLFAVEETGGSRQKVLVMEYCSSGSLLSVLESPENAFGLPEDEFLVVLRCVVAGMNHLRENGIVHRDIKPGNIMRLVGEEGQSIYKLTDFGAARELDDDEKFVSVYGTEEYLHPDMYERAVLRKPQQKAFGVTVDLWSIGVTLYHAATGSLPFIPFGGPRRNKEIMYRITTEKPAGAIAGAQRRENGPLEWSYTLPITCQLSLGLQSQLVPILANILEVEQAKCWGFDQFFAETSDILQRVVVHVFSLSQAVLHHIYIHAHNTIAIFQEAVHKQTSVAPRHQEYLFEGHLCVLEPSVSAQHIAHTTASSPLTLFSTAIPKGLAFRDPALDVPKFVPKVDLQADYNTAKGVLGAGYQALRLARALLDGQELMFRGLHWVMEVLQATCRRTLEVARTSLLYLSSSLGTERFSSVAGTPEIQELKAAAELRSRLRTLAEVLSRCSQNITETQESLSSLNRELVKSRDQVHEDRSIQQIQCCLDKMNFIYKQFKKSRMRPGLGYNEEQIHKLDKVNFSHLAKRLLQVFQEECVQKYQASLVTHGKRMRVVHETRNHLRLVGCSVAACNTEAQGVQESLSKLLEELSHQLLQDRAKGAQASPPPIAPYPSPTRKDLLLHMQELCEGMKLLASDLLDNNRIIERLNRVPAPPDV
Outline: as §1

[1] = system: IKKε-mediated phosphorylation of IRF3; assay: In-situ phosphorylation of IRF3 (pIRF3 Ser396 ELISA) in HEK293T cells cotransfected with IRF3 and IKKε; assay type: cell-based; conditions: Homo sapiens, HEK-293T
Outline: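 Cells for the IRF7 Western blots carried IRF7 and TBK1 plasmids, were seeded at 150,000/well, exposed to compound overnight and probed for pSer477/Ser479 IRF7. The ELISA readout used IRF3 + IKKε-cotransfected HEK293T at 20,000/well with 20 h treatment, quantifying pSer396 IRF3 relative to DMSO, plus a parallel CellTiter-Glo viability check.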

[2] = text bins, read-out: IC50 for inhibition of the kinase activity of TBK1
[3] = text bins, read-out: IC50 for inhibition of the kinase activity of IKKε
[4] = HEK293T cells, 20 hours, text bins, read-out: IC50 for inhibition of the in-situ IKKε-mediated phosphorylation of IRF3
[5] = HEK293T cells in culture, Table 3, read-out: pIRF3 ELISA IC50

Row | Structure (SMILES) | IC50 (TBK1; [2]) [nM] | IC50 (IKKε; [3]) [nM] | IC50 [1, 4] [nM] | IC50 (TBK1; Table 3, read-out: TBK1 IC50) [nM] | IC50 (IKKε; Table 3, read-out: IKKε IC50) [nM] | IC50 [1, 5] [nM]
1 | Cc1ccc(Nc2nccc(-c3ccc(OC4CCOCC4)c(C#N)c3)n2)cc1OCCCN1CCOCC1 [compound 517, 5-[2-({4-Methyl-3-[3-(morpholin-4-yl)propoxy]phenyl}amino)pyrimidin-4-yl]-2-(tetrahydro-2H-pyran-4-yloxy)benzonitrile] | < 10 | < 5 | < 100 |  |  | 
2 | N#Cc1cc(-c2ccnc(Nc3ccc(CN4CC(O)C4)cc3)n2)ccc1OC1CCOCC1 [compound 497, 5-[2-({4-[(3-hydroxyazetidin-1-yl)methyl]phenyl}amino)pyrimidin-4-yl]-2-(tetrahydro-2H-pyran-4-yloxy)benzonitrile] | < 10 | < 5 | < 100 |  |  | 
3 | CNS(=O)(=O)Cc1ccc(Nc2nccc(-c3ccc(OC4CCOCC4)c(C#N)c3)n2)cc1 [compound 413, 1-[4-({4-[3-cyano-4-(tetrahydro-2H-pyran-4-yloxy)phenyl]pyrimidin-2-yl}amino)phenyl]-N-methylmethane-sulfonamide] | < 10 | < 5 | < 100 |  |  | 
4 | COCCNC(=O)Nc1cccc(Nc2nccc(-c3ccc(OC4CCOCC4)c(C#N)c3)n2)c1 [compound 543, 1-[3-({4-[3-Cyano-4-(tetrahydro-2H-pyran-4-yloxy)phenyl]pyrimidin-2-yl}amino)phenyl]-3-(2-methoxyethyl)urea] | < 10 | < 5 | < 100 | 1.3 | 1.1 | 50.3
5 | N#Cc1cc(-c2ccnc(Nc3cccc(CS(=O)(=O)NCCO)c3)n2)ccc1OC1CCOCC1 [compound 619, 1-[3-({4-[3-Cyano-4-(tetrahydro-2H-pyran-4-yloxy)phenyl]pyrimidin-2-yl}amino)phenyl]-N-(2-hydroxyethyl) methanesulfonamide] | < 10 | < 5 | 250 to 500 | 0.2 | 1.2 | 287
6 | COc1cc(Nc2nccc(-c3ccc(OC4CCOCC4)c(C#N)c3)n2)ccc1C(=O)N1CCC(N2CCCC2)C1 (stereo not drawn) [compound 502, 5-(2-{[4-(1,3′-bipyrrolidin-1′-ylcarbonyl)-3-methoxyphenyl]amino}pyrimidin-4-yl)-2-(tetrahydro-2H-pyran-4-yloxy)benzonitrile] | < 10 | < 5 | < 100 |  |  | 
7 | COc1cc(Nc2nccc(-c3ccc(OC4CCOCC4)c(C#N)c3)n2)ccc1C(=O)N1CCC1 [compound 567, 5-(2-{[4-(Azetidin-1-ylcarbonyl)-3-methoxyphenyl]amino}pyrimidin-4-yl)-2-(tetrahydro-2H-pyran-4-yloxy)benzonitrile] | < 10 | < 5 | < 100 |  |  | 
8 | N#Cc1cc(-c2ccnc(Nc3ccc(N4CCOCC4)cc3)n2)ccc1NCc1ccccn1 [Example 64, 5-(2-{[4-(Morpholin-4-yl)phenyl]amino}pyrimidin-4-yl)-2-[(pyridin-2-ylmethyl)amino] benzonitrile] | < 10 | 5 to 50 | 250 to 500 |  |  | 
9 | COc1cc(Nc2nccc(-c3ccc(OC4CCOCC4)c(C#N)c3)n2)ccc1C(=O)N1CC(N2CCOCC2)C1 [compound 475, 5-{2-[(3-Methoxy-4-{[3-(morpholin-4-yl)azetidin-1-yl]carbonyl}phenyl)amino]pyrimidin-4-yl}-2-(tetrahydro-2H-pyran-4-yloxy)benzonitrile] | < 10 | < 5 | < 100 |  |  | 
10 | COc1cc(-c2ccnc(Nc3ccc(N4CCOCC4)cc3)n2)cc(C#N)c1OC1CCN(C(=O)[C@@H](C)O)CC1 [compound 436, 2-({1-[(2R)-2-Hydroxypropanoyl]piperidin-4-yl}oxy)-3-methoxy-5-(2-{[4-(morpholin-4-yl)phenyl]amino}pyrimidin-4-yl)benzonitrile] | < 10 | < 5 | < 100 |  |  | 
11 | COc1cc(Nc2nccc(-c3ccc(OC4CCOCC4)c(C#N)c3)n2)ccc1CN1C[C@@H](C)O[C@@H](C)C1 [compound 480, 5-{2-[(4-{[(2R,6S)-2,6-Dimethylmorpholin-4-yl]methyl}-3-methoxyphenyl)amino]pyrimidin-4-yl}-2-(tetrahydro-2H-pyran-4-yloxy)benzonitrile] | < 10 | < 5 | < 100 |  |  | 
12 | COc1cc(Nc2nccc(-c3ccc(OC4CCOCC4)c(C#N)c3)n2)ccc1C(=O)N1CCCC1 [compound 613, 5-(2-{[3-Methoxy-4-(pyrrolidin-1-ylcarbonyl)phenyl]amino}pyrimidin-4-yl)-2-(tetrahydro-2H-pyran-4-yloxy)benzonitrile] | < 10 | < 5 | < 100 | 0.4 | 0.8 | 19.9
13 | N#Cc1cc(-c2ccnc(Nc3ccc(Cn4ccnc4)cc3)n2)ccc1OC1CCOCC1 [compound 500, 5-(2-{[4-(1H-imidazol-1-ylmethyl)phenyl]amino}pyrimidin-4-yl)-2-(tetrahydro-2H-pyran-4-yloxy)benzonitrile] | < 10 | < 5 | < 100 | 0.3 | 2 | 91.8
14 | N#Cc1cc(-c2ccnc(Nc3cccc(N4CCN(CCO)CC4)c3)n2)ccc1OC1CCOCC1 [compound 620, 5-[2-({3-[4-(2-Hydroxyethyl)piperazin-1-yl]phenyl}amino)pyrimidin-4-yl]-2-(tetrahydro-2H-pyran-4-yloxy)benzonitrile] | < 10 | < 5 | < 100 | 1.9 | 0.7 | 50.3
15 | N#Cc1cc(-c2ccnc(Nc3ccc(CN)cc3)n2)ccc1OC1CCOCC1 [compound 486, 5-(2-{[4-(aminomethyl)phenyl]amino}pyrimidin-4-yl)-2-(tetrahydro-2H-pyran-4-yloxy)benzonitrile] | < 10 | < 5 | 250 to 500 |  |  | 
16 | COc1cc(Nc2nccc(-c3ccc(OC4CCOCC4)c(C#N)c3)n2)ccc1CN1CCN(C)CC1 [compound 479, 5-[2-({3-Methoxy-4-[(4-methylpiperazin-1-yl)methyl]phenyl}amino)pyrimidin-4-yl]-2-(tetrahydro-2H-pyran-4-yloxy)benzonitrile] | < 10 | < 5 | < 100 |  |  | 
17 | COc1cc(Nc2nccc(-c3ccc(OC4CCN(C(=O)CO)CC4)c(C#N)c3)n2)ccc1N1CCOCC1 [Example 59, 2-{[1-(hydroxyacetyl)piperidin-4-yl]oxy}-5-(2-{[3-methoxy-4-(morpholin-4-yl)phenyl]amino}pyrimidin-4-yl)benzonitrile] | < 10 | < 5 | < 100 | 0.4 | 0.2 | 16.2
18 | N#Cc1cc(-c2ccnc(Nc3ccc(N4CCOCC4)cc3)n2)ccc1OCC1CC1 [compound 438, 2-(cyclopropylmethoxy)-5-(2-{[4-(morpholin-4-yl)phenyl]amino}pyrimidin-4-yl)benzonitrile] | < 10 | < 5 | < 100 |  |  | 
